“Also recorded” adds a separate entry of the source.
Tests used:
[1] = test system: SVV replication in HeLa cells; test: SVV replication in Tem 8+ HeLa cells, virus yield by plaque assay; assay type: cell-based
Experimental: FIG. 2A. SVV replication in HeLa cells can be enhanced with staurosporine (SSP). FIG. 2B. Inhibition of SVV replication by IFN-α can be reversed with SSP in Per.C6 cells. TEM 8+ HeLa cells or Per.C6 cells were pretreated with 500 units IFN-α before infection with SVV at MOI 1. 300 nM SSP was added at time 0. Virus yields determined by plaque assay 24 h post infection. Results are representative of three independent experiments.
FIGS. 3A-3B are series of histogram depicting the effect of Trichostatin A on SVV replication. FIG. 3A. SVV replication in HeLa cells can be enhanced with Trichostatin A. FIG. 3B. Inhibition of SVV replication by IFN-α can be reversed with Trichostatin A in Per.C6 cells. TEM 8+ HeLa cells or Per.C6 cells were pretreated with 500 units IFN-α before infection with SVV at MOI 1. 1 μM Trichostatin A was added at time 0. Virus yields determined by plaque assay 24 h post infection. Results are representative of three independent experiments.
FIGS. 4A-4B are series of histogram depicting the effect of Torin 2 A on SVV replication. FIG. 4A. SVV replication in HeLa cells can be enhanced with Torin 2 A. FIG. 4B. Inhibition of SVV replication by IFN-α can be reversed with Torin 2 in Per.C6 cells. TEM 8+ HeLa cells or Per.C6 cells were pretreated with 500 units IFN-α before infection with SVV at MOI 1. 2 μM Torin 2 was added at time −30 min. Virus yields determined by plaque assay 24 h post infection. Results are representative of three independent experiments.
Cells and viruses. Cells were maintained in DMEM supplemented with 10% fetal bovine serum (Per.C6) or 10% bovine serum (HeLa), 2 mM L-glutamine (Invitrogen), and 1% penicillin-streptomycin. Viral stocks were produced by growth in Per.C6 cells as previously described (23).
Cytokines and Inhibitors. IFN-α and Trichostatin A were purchased from Sigma, Inc. (St. Louis, MO). […] All compounds were dissolved in DMSO.
Virus infections. Infections were performed in 35 mm dishes. Cells were counted at the time of infection and viral stocks were diluted in PBS+0.01% BSA (Sigma, St. Louis, MO) for infections at the appropriate MOI. One hundred microliters of diluted virus were used to infect each plate at 37° C. for 45 min with rocking. Cells were then washed twice with PBS and covered with 1 mL of appropriate media; samples taken at this time are called 0 time point. Mock infected cells were treated with PBS+0.01% BSA instead of virus. Three independent infections were done.
Plaque assays. […]
Removal of acetyl moieties from histones is catalyzed by enzymes known as histone deacetylases (HDACs) and leads to […]. […] Sixteen hours after infection virus yields were determined by plaque assay (FIG. 3A). […]

[2] = test system: SVV replication in Per.C6 cells; test: SVV replication in Per.C6 cells with or without IFN-α pretreatment, virus yield by plaque assay; assay type: cell-based, human; conditions: Per.C6 cells pretreated with 500 units IFN-α
Experimental: Per.C6 cells were pretreated with 500 units IFN-α before infection with SVV at MOI=1. Virus yields were determined by plaque assay 24 h post infection.
Plaque assays. Samples for virus titration were produced by harvesting cells and medium, followed by three cycles of freezing and thawing and then by centrifugation at 5000×g for 5 min. All titrations were done on monolayers of Per.C6 cells in 35 mm plates. Ten-fold serial dilutions of virus were made in PBS+0.1 mg/ml BSA (Sigma) and 0.1 mL of each dilution was added per well. Plates were incubated at 37° C. for 45 min with rocking and overlay was then added. A two-overlay system was used. […] Plaque assays were incubated for 72 hrs at 37° C. Cells were then fixed with 10% TCA (Sigma) and stained with 0.1% crystal violet (Sigma) in 20% ethanol.

For Nc1ccc(-c2ccc3ncc4ccc(=O)n(-c5cccc(C(F)(F)F)c5)c4c3c2)cn1 [Torin 2], the “enhanced SVV replication by Torin 2 in the presence of IFN-α” value ([1]; HeLa cells pretreated with 500 units IFN-α, 2 μM Torin 2 at −30 min, SVV MOI 1, 24 h post infection) was “not reduced in the presence of IFN-α”, the “SVV yields (plaque assay)” value ([1]; semi-permissive HeLa cells, SVV MOI 1, 2 μM Torin 2 added at time −30 min, 24 h post infection) was “substantially increased SVV yields” and the “SVV replication in the presence of IFN-α” value ([2]; 2 μM Torin 2 at −30 min, SVV MOI 1, 24 h post infection) was “promoted SVV replication”.

CC(/C=C/C(=O)NO)=C\[C@@H](C)C(=O)c1ccc(N(C)C)cc1 [Trichostatin A] was tested, and the “SVV infection of non-permissive HeLa cells (virus yields by plaque assay)” value ([1]; HeLa cells grown with Trichostatin A for 24 hours before infection, yields sixteen hours after infection (legend: 1 μM at time 0, 24 h)) was “more efficient” and the “effect on inhibition of SVV replication by IFN-α” value ([2]; SVV MOI 1, 1 μM Trichostatin A added at time 0, 24 h post infection) was “reversed the inhibitory effect of IFN-α on SVV replication”.

CN[C@@H]1C[C@H]2O[C@@](C)([C@@H]1OC)n1c3ccccc3c3c4c(c5c6ccccc6n2c5c31)C(=O)NC4 [staurosporine] was tested, and the “production of infectious SVV (virus yields by plaque assay)” value ([1]; Tem 8+ HeLa cells, SVV MOI 1, 300 nM SSP added at time 0, 24 h post infection) was “increased production of infectious SVV”.

With IFN-α the “production of infectious SVV (virus yields by plaque assay)” value ([2]; SVV MOI 1, 24 h post infection) was “significantly reduced production of infectious SVV; also recorded: reduced virus yields”.
